Assay results: patent publication US20250302780A1, “METHOD OF TREATING PREMATURE EJACULATION IN HUMAN MALES WITHOUT SYMPTOMS OF BENIGN PROSTATIC HYPERTROPHY (BPH) USING TAMSULOSIN 0.2MG QOD WHICH DELAYS EJACULATION BY REDUCING THE RATE OF SECRETION AND TRANSPORT BY SEMINAL VESICLES AND PROSTATE IN THE GENITOURINARY TRACT” (Wustashire, priority 2024, published 2025)
Like-named read-outs stand apart in the source and are kept apart here.

Tests used:
[1] = cited from earlier work
[2] = 0.2 mg QD, after 8 weeks (Zhang et al.); cited from earlier work
[3] = cited from earlier work; remark: listed apart in the source
[4] = Focused analysis of published BPH/LUTS studies: risk of abnormal ejaculation (anejaculation or significantly reduced ejaculate) with tamsulosin; format: in vivo, human
Protocol: To objectively determine an effective tamsulosin dose for treating premature ejaculation in patients without benign prostatic hypertrophy (BPH), a focused analysis of relevant well designed research studies that examined the abnormal ejaculation side effects of tamsulosin in BPH treatment based on combined data derived from multiple sources was conducted (www.accessdata.fda.gov, n.d.; Soliman et al, 2023; Shim et al., 2016). […] These studies focused on evaluating tamsulosin treatment outcomes in patients with BPH and lower urinary tract symptoms (LUTS). The analysis leveraged the identical mechanism of action of tamsulosin in both BPH/LUTS and premature ejaculation with respect to non-vascular smooth muscle relaxation in the genitourinary tract.
The graph plots administered tamsulosin quantity in mg on the x-axis against the calculated percentage risks of these dysfunctional sequelae on the y-axis.
Further, the FIG. 4 illustrates test data on calculated risk of abnormal or adverse ejaculatory side effects at different dosages. […] Quantitative data points are shown for tamsulosin at doses of 0.8 mg, 0.4 mg, and 0.2 mg taken either on a daily (QD) basis or every other day (QOD).

risk of ejaculatory sequelae ([4]; 0.4 mg QOD (every other day), calculated from 5-fold reduction): 1.68%
drop in abnormal ejaculatory risk likelihood ([4]; dose reduction 0.4 mg QD to 0.2 mg QD): ~2.15 fold
reduction of projected abnormal ejaculatory risk ([4]; halving 0.8 mg QD to 0.4 mg QD): 53.6%
SMILES: CCOc1ccccc1OCCN[C@H](C)Cc1ccc(OC)c(S(N)(=O)=O)c1 [tamsulosin]
risk of abnormal or adverse ejaculatory side effects ([1]; 0.4 mg QD (daily)): 8.4%
abnormal ejaculatory risk reduction ([1]; 0.4 mg converted from QD to QOD (Soliman et al.)): 5 fold
risk of abnormal or adverse ejaculatory side effects ([1]; 0.8 mg QD (daily)): 18.1%
increase of intravaginal ejaculation latency time (IELT) [2]: 1.14 min
risk of adverse events [2]: 2.6%
efficacy for mild to moderate BPH symptoms ([3]; 0.2 mg QD (Shim et al.)): effective
therapeutic efficacy of QD dosing versus alternating day dosing ([3]; QD vs alternating day (Soliman et al.)): clinically similar
